In patent publication US6969609B1 (priority 1998, dated 2005):

System: BMDC
Assay type: cell-based, C57BL/6 mice

## TNF-α
  B7-1 % positive cells: 85%
  B7-1 MFI: (320)
  B7-2 % positive cells: 71%
  B7-2 MFI: (412)
  CD11b % positive cells: 84%
  CD11b MFI: (729)
  CD11c % positive cells: 20%
  CD11c MFI: (149)
  CD40 % positive cells: 65%
  CD40 MFI: (159)
  H-2K^b/D^b % positive cells: 91%
  H-2K^b/D^b MFI: (195)
  I-A^b % positive cells: 95%
  I-A^b MFI: (1189)
  ICAM-1 % positive cells: 97%
  ICAM-1 MFI: (421)
  LFA-3 % positive cells: 87%
  LFA-3 MFI: (249)
